The nature of data set [1]: Cell viability assay (AlamarBlue). The following applies: human, HepAD38 cells.
In data set [2] the target is HBV core protein (C-terminal truncated core protein containing 149 amino acids of the N-terminal assembly domain) (UniProt P03146). As to the kind of experiment: Biochemical capsid assembly assay (fluorescence quenching). More on the design: rows headed: Assembly Activity; other: BODIPY-FL labelled core protein, assembly started with NaCl, read after 6 min. As to conditions: read-out: Assembly Activity; BODIPY-FL labelled core protein, assembly started with NaCl, read after 6 min. An outline of the steps:
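N-terminal assembly domain (residues 1–149) plus C-terminal Cys150, E. coli-expressed, BODIPY-FL-maleimide labelled, used at 1.0–2.0 μM in 50 mM HEPES pH 7.5 with 0.5% DMSO. Assembly started with NaCl ([…]); fluorescence quenching (ex 477/em 525 nm) read after 6 min. 8-point compound series; EC50 by non-linear regression.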

Another data set has as its system HBV. In words: Determination of HBV DNA from the supernatants of HepAD38 cells (anti-HBV activity). In kind it is cell-based, hepatitis B virus. The following applies: Hepatitis B virus, HePAD38, 144 h, HBV DNA in HepAD38 supernatant, day 6, qPCR; read-out: Cell Activity. An outline of the steps: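 HepAD38 cells (60,000/well) seeded in tetracycline-free medium to induce HBV, treated with half-log serial compound dilutions for 6 days at 37 °C. HBV DNA purified from filtered supernatant and quantified by real-time PCR against HBV plasmid standards; EC50 from relative copy numbers by non-linear regression.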

Our source for the CC50, IC50 and EC50 values is patent publication US20220363686A1 (AiCuris GmbH & Co. KG, priority 2018, published 2022).

Sequence of HBV core protein (C-terminal truncated core protein containing 149 amino acids of the N-terminal assembly domain) (P03146 whole entry, the tested form may be a part): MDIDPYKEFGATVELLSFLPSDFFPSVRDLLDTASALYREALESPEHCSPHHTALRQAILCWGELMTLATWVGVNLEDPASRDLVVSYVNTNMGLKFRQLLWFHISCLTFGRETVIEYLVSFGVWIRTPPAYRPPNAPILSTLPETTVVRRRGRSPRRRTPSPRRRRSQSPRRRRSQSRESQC

`O=C(c1cc2ccccc2[nH]1)N1CCn2ncc(S(=O)(=O)N3CCCC3)c2C1` [Example 39, 2-[3-(pyrrolidine-1-sulfonyl)-4H,5H,6H,7H-pyrazolo[1,5-a]pyrazine-5-carbonyl]-1H-indole] registered a CC50 at 6 days in data set [1] of over 10 µM. Also, in data set [2], the IC50 was under 5 µM. In addition, the EC50 in the data set on HBV is under 1 µM.
In the same order, the values of `COCC1(CNC(=O)c2cnn3c2CN(C(=O)c2cc4ccccc4[nH]2)CC3)CC1` [Example 10, 5-(1H-indole-2-carbonyl)-N-{[1-(methoxymethyl)cyclopropyl]methyl}-4H,5H,6H,7H-pyrazolo[1,5-a]pyrazine-3-carboxamide] are over 10 µM, 5 to 10 µM and 1 to 10 µM.
Take `O=C(c1cc2ccccc2[nH]1)N1CCn2ncc(C3CCC3)c2C1` [Example 6, 2-{3-cyclobutyl-4H,5H,6H,7H-pyrazolo[1,5-a]pyrazine-5-carbonyl}-1H-indole]: the half-maximal cytotoxic concentration (CC50) at 6 days in data set [1] is over 10 µM. Further, in data set [2], the IC50 was under 5 µM. Further, the EC50 with HBV is under 1 µM.
Consider `CC1Cn2ncc(C(=O)NC3(COC(F)F)CC3)c2CN1C(=O)c1cc2ccccc2[nH]1` (racemic) [Example 130, N-{1-[(difluoromethoxy)methyl]cyclopropyl}-5-(1H-indole-2-carbonyl)-6-methyl-4H,5H,6H,7H-pyrazolo[1,5-a]pyrazine-3-carboxamide], for which the CC50 at 6 days in data set [1] is over 10 µM. The IC50 in data set [2] is under 5 µM. In addition, the EC50 in the data set with HBV was under 1 µM.
The compound `CN(C(=O)c1cnn2c1CN(C(=O)c1cc3ccccc3[nH]1)CC2)C1(CNCC(F)(F)F)CC1` [Example 80, 5-(1H-indole-2-carbonyl)-N-methyl-N-(1-{[(2,2,2-trifluoroethyl)amino]methyl}cyclopropyl)-4H,5H,6H,7H-pyrazolo[1,5-a]pyrazine-3-carboxamide] yielded a CC50 at 6 days in data set [1] of over 10 µM. In addition, the IC50 in data set [2] was under 5 µM. Moreover, the EC50 in the data set on HBV is under 1 µM.
As for `CN(C(=O)c1cnn2c1CN(C(=O)c1cc3ccccc3[nH]1)CC2)C1(c2cccnc2)CC1` [Example 72, 5-(1H-indole-2-carbonyl)-N-methyl-N-[1-(pyridin-3-yl)cyclopropyl]-4H,5H,6H,7H-pyrazolo[1,5-a]pyrazine-3-carboxamide], the cytotoxic concentration (CC50) at 6 days in data set [1] is over 10 µM. The IC50 in data set [2] is under 5 µM. In addition, in the data set on HBV, the EC50 was under 1 µM.
In data set [1], `O=C(c1cc2c(F)c(F)ccc2[nH]1)N1CCn2ncc(C(=O)N3CCCOCC34CC4)c2C1` [Example 109, 4-[5-(4,5-difluoro-1H-indole-2-carbonyl)-4H,5H,6H,7H-pyrazolo[1,5-a]pyrazine-3-carbonyl]-8-oxa-4-azaspiro[2.6]nonane] displayed a CC50 at 6 days of over 10 µM. The IC50 in data set [2] is under 5 µM. Further, the EC50 in the data set with HBV is under 1 µM.
`CC(COC(F)F)NC(=O)c1cnn2c1CN(C(=O)c1cc3ccccc3[nH]1)CC2` (stereo not drawn) [Example 89, N-[1-(difluoromethoxy)propan-2-yl]-5-(1H-indole-2-carbonyl)-4H,5H,6H,7H-pyrazolo[1,5-a]pyrazine-3-carboxamide] yielded a CC50 at 6 days in data set [1] of over 10 µM. Further, the IC50 in data set [2] was under 5 µM. In the data set on HBV, the EC50 was under 1 µM.
The compound `CC1Cn2ncc(C(=O)NC3(COC(F)F)CC3)c2CN1C(=O)c1cc2ccccc2[nH]1` (single isomer, unassigned) [Example 131, N-{1-[(difluoromethoxy)methyl]cyclopropyl}-5-(1H-indole-2-carbonyl)-6-methyl-4H,5H,6H,7H-pyrazolo[1,5-a]pyrazine-3-carboxamide] displayed a half-maximal cytotoxic concentration (CC50) at 6 days in data set [1] of over 10 µM. In addition, in data set [2], the IC50 was under 5 µM. Moreover, the EC50 in the data set on HBV was under 1 µM.
In turn, `Cc1cc(F)cc2[nH]c(C(=O)N3CCn4ncc(C(=O)NC5(COC(F)F)CC5)c4C3)cc12` [Example 102, N-{1-[(difluoromethoxy)methyl]cyclopropyl}-5-(6-fluoro-4-methyl-1H-indole-2-carbonyl)-4H,5H,6H,7H-pyrazolo[1,5-a]pyrazine-3-carboxamide] registered a CC50 at 6 days in data set [1] of over 10 µM. The IC50 in data set [2] is under 5 µM. Moreover, in the data set with HBV, the EC50 was under 1 µM.
Turning to `Cc1cc(F)cc2[nH]c(C(=O)N3CCn4ncc(C(=O)N[C@H](C)C(F)(F)F)c4C3)cc12` [Example 112, 5-(6-fluoro-4-methyl-1H-indole-2-carbonyl)-N-[(2R)-1,1,1-trifluoropropan-2-yl]-4H,5H,6H,7H-pyrazolo[1,5-a]pyrazine-3-carboxamide], the cytotoxic concentration (CC50) at 6 days in data set [1] is over 10 µM. In addition, the IC50 in data set [2] was under 5 µM. In addition, the EC50 in the data set on HBV was under 1 µM.
The compound `O=C(NC1(COC(F)F)CC1)c1cnn2c1CN(C(=O)c1cc3cc(F)c(Cl)cc3[nH]1)CC2` [Example 92, 5-(6-chloro-5-fluoro-1H-indole-2-carbonyl)-N-{1-[(difluoromethoxy)methyl]cyclopropyl}-4H,5H,6H,7H-pyrazolo[1,5-a]pyrazine-3-carboxamide] gave a CC50 at 6 days in data set [1] of over 10 µM. The IC50 in data set [2] was under 5 µM. In the data set on HBV, the EC50 was under 1 µM.
As to `CN(CCO)C(=O)c1cnn2c1CN(C(=O)c1cc3c(F)cc(F)cc3[nH]1)CC2` [Example 129, 5-(4,6-difluoro-1H-indole-2-carbonyl)-N-(2-hydroxyethyl)-N-methyl-4H,5H,6H,7H-pyrazolo[1,5-a]pyrazine-3-carboxamide], in data set [1], the CC50 at 6 days is over 10 µM. The IC50 in data set [2] is under 5 µM. In the data set on HBV, the EC50 is under 1 µM.
In data set [1], `CCOCC1(N(C)C(=O)c2cnn3c2CN(C(=O)c2cc4ccccc4[nH]2)CC3)CC1` [Example 12, N-[1-(ethoxymethyl)cyclopropyl]-5-(1H-indole-2-carbonyl)-N-methyl-4H,5H,6H,7H-pyrazolo[1,5-a]pyrazine-3-carboxamide] registered a cytotoxic concentration (CC50) at 6 days of over 10 µM. In data set [2], the IC50 was under 5 µM. Besides, in the data set with HBV, the EC50 was under 1 µM.
Compound `O=C(c1cc2ccccc2[nH]1)N1CCn2ncc(S(=O)(=O)NC3CCOC3)c2C1` (stereo not drawn) [Example 30, 5-(1H-indole-2-carbonyl)-N-(oxolan-3-yl)-4H,5H,6H,7H-pyrazolo[1,5-a]pyrazine-3-sulfonamide] registered a CC50 at 6 days in data set [1] of over 10 µM. Besides, in data set [2], the IC50 is under 5 µM. In the data set on HBV, the EC50 is under 1 µM.
In data set [1], `O=C(c1cc2ccccc2[nH]1)N1CCn2ncc(S(=O)(=O)N3CCOCC3)c2C1` [Example 38, 2-[3-(morpholine-4-sulfonyl)-4H,5H,6H,7H-pyrazolo[1,5-a]pyrazine-5-carbonyl]-1H-indole] registered a 50% cytotoxic concentration (CC50) at 6 days of over 10 µM. Also, in data set [2], the IC50 is under 5 µM. Besides, the EC50 in the data set with HBV was under 1 µM.
Consider `CCc1cc(F)cc2[nH]c(C(=O)N3CCn4ncc(C(=O)N(C)C5(COC(F)F)CC5)c4C3)cc12` [Example 22, N-{1-[(difluoromethoxy)methyl]cyclopropyl}-5-(4-ethyl-6-fluoro-1H-indole-2-carbonyl)-N-methyl-4H,5H,6H,7H-pyrazolo[1,5-a]pyrazine-3-carboxamide], for which the CC50 at 6 days in data set [1] is over 10 µM. The IC50 in data set [2] was under 5 µM. For the same compound, the EC50 in the data set with HBV is under 1 µM.
`CN(C(=O)c1cnn2c1CN(C(=O)c1cc3c(Cl)c(F)ccc3[nH]1)CC2)C1(CO)CC1` [Example 96, 5-(4-chloro-5-fluoro-1H-indole-2-carbonyl)-N-[1-(hydroxymethyl)cyclopropyl]-N-methyl-4H,5H,6H,7H-pyrazolo[1,5-a]pyrazine-3-carboxamide] displayed a 50% cytotoxic concentration (CC50) at 6 days in data set [1] of over 10 µM. The IC50 in data set [2] was under 5 µM. The EC50 with HBV was under 1 µM.
Take `O=C(c1cc2ccccc2[nH]1)N1CCn2ncc(S(=O)(=O)N3CCC(O)CC3)c2C1` [Example 35, 1-{[5-(1H-indole-2-carbonyl)-4H,5H,6H,7H-pyrazolo[1,5-a]pyrazin-3-yl]sulfonyl}piperidin-4-ol]: in data set [1], the half-maximal cytotoxic concentration (CC50) at 6 days is over 10 µM. For the same compound, in data set [2], the IC50 was under 5 µM. In addition, the EC50 in the data set with HBV is under 1 µM.
In the same order, the values of `CCc1cccc2[nH]c(C(=O)N3CCn4ncc(C(=O)N(C)C5(CO)CC5)c4C3)cc12` [Example 95, 5-(4-ethyl-1H-indole-2-carbonyl)-N-[1-(hydroxymethyl)cyclopropyl]-N-methyl-4H,5H,6H,7H-pyrazolo[1,5-a]pyrazine-3-carboxamide] are over 10 µM, under 5 µM and under 1 µM.
The compound `O=C(NC1(CCOC(F)F)CCC1)c1cnn2c1CN(C(=O)c1cc3ccccc3[nH]1)CC2` [Example 123, N-{1-[2-(difluoromethoxy)ethyl]cyclobutyl}-5-(1H-indole-2-carbonyl)-4H,5H,6H,7H-pyrazolo[1,5-a]pyrazine-3-carboxamide] showed a CC50 at 6 days in data set [1] of over 10 µM. Also, in data set [2], the IC50 was under 5 µM. Besides, the EC50 with HBV is under 1 µM.
The corresponding values for `O=C(c1cc2ccccc2[nH]1)N1CCn2ncc(C(=O)N(C3CC3)C3CC3)c2C1` [Example 60, N,N-dicyclopropyl-5-(1H-indole-2-carbonyl)-4H,5H,6H,7H-pyrazolo[1,5-a]pyrazine-3-carboxamide] are over 10 µM, under 5 µM and under 1 µM.
In the same order, the values of `CN(C(=O)c1cnn2c1CN(C(=O)c1cc3c(Cl)cc(F)cc3[nH]1)CC2)C1(CO)CC1` [Example 85, 5-(4-chloro-6-fluoro-1H-indole-2-carbonyl)-N-[1-(hydroxymethyl)cyclopropyl]-N-methyl-4H,5H,6H,7H-pyrazolo[1,5-a]pyrazine-3-carboxamide] are over 10 µM, under 5 µM and under 1 µM.
